The numbers were not newly measured in PMC4387854 (Bioorganic & medicinal chemistry, 2013), which cites them from elsewhere.

Marks after values point to notes of the source that are not given here.

The conditions of series [1]: preclinical evaluation in rats and dogs or in human trials.
The conditions of series [2]: female rats with MNU-initiated mammary tumors; ref Grubbs et al. 8.

Consider `CC(=C/C=C/C(C)=C/C(=O)O)/C=C1\CCCc2ccccc21` [9cUAB30, (2E,4E,6Z,8Z)-8-(3’,4’-Dihydro-1’(2H)-naphthalen-1’-ylidene)-3,7-dimethyl-2,3,6-octatrienoinic acid], for which, in series [1], the “Increase in serum TG” value is “no increase”. Further, the “Serum Triglyceride Increase (%)” value in series [2] is recorded as 65% ^d.
